# Test results taken from patent US20250230165A1, “HETEROCYCLIC COMPOUNDS FOR USE IN THE TREATMENT OF CANCER” (ARTIOS PHARMA LIMITED, priority 2021, published 2025).
# Target: T1, Human Polθ polymerase domain (aa1820-2590) (Homo sapiens, UniProt O75417)
# T1 construct: Human Polθ polymerase domain (aa1820-2590) was expressed in E. coli; made in house; host or cells: E. coli
# T1 sequence (O75417 1820-2590): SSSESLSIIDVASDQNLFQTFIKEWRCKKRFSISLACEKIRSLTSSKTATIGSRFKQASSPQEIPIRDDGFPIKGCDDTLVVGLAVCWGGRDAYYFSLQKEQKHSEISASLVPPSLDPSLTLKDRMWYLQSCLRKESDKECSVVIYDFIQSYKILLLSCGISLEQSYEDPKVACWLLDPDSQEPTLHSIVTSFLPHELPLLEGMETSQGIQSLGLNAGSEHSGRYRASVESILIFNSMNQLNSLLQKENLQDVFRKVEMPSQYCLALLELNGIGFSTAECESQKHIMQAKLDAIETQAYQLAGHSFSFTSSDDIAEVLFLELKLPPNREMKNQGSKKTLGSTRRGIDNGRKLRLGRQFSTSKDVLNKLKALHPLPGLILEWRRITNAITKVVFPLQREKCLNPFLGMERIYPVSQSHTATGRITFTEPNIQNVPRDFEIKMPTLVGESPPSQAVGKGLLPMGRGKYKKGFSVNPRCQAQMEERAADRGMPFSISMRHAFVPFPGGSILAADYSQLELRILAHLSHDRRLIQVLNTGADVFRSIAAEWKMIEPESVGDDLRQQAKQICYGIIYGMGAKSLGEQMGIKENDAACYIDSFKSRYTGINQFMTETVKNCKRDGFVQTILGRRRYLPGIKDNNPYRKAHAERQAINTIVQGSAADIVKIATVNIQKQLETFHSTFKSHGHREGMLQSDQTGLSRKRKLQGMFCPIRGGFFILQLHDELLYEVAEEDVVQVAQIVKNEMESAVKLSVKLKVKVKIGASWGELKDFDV
# Assay: Polθ Polymerase Domain Kinact/KI Assay (PicoGreen)
# Type: biochemical
# Settings: 0.8 nM Polθ, 100 nM DNA substrate, kobs vs [I] fit for 2-step covalent inhibitor
# How it was run: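 Time-dependent inhibition was followed by quenching reactions with EDTA at points up to 60 min, then staining product DNA with PicoGreen fluorescence. Reactions held 0.8 nM E. coli-expressed Polθ, 100 nM primed DNA substrate and […] at pH 7.5, 1% DMSO. kobs versus inhibitor concentration gave Kinact and KI.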
row,Kinact/Kl [M⁻¹ s⁻¹],Compound
1,560000,"C=CC(=O)N1CC(N2CC[C@@H](CN3C[C@H]4CC(=O)N(c5cc(C(F)(F)F)cc(C)n5)[C@@H]4C(=O)N(C)c4cccc(Cl)c43)C2)C1 [Example 219, (3aR,11aS)-5-(((R)-1-(1-acryloylazetidin-3-yl)pyrrolidin-3-yl)methyl)-6-chloro-10-methyl-1-(6-methyl-4-(trifluoromethyl)pyridin-2-yl)-1,3a,4,5,10,11a-hexahydro-2H-benzo[b]pyrrolo [2,3-f][1,4] diazocine-2,11(3H)-dione]"
2,3.66e+06,"C=CC(=O)N1CC(N2CC[C@@H](CCN3C[C@H]4CC(=O)N(c5cc(C(F)(F)F)cc(C)n5)[C@@H]4C(=O)N(C)c4cccc(Cl)c43)C2)C1 [Example 220, (3aR,11aS)-5-(2-((S)-1-(1-acryloylazetidin-3-yl)pyrrolidin-3-yl)ethyl)-6-chloro-10-methyl-1-(6-methyl-4-(trifluoromethyl)pyridin-2-yl)-1,3a,4,5,10,11a-hexahydro-2H-benzo[b]pyrrolo [2,3-f][1,4] diazocine-2,11(3H)-dione]"
3,3.03e+06,"C=CC(=O)N1CC(N2CC[C@H](CCN3C[C@H]4CC(=O)N(c5cc(C(F)(F)F)cc(C)n5)[C@@H]4C(=O)N(C)c4cccc(Cl)c43)C2)C1 [Example 221, (3aR,11aS)-5-(2-((R)-1-(1-acryloylazetidin-3-yl)pyrrolidin-3-yl)ethyl)-6-chloro-10-methyl-1-(6-methyl-4-(trifluoromethyl)pyridin-2-yl)-1,3a,4,5,10,11a-hexahydro-2H-benzo[b] pyrrolo[2,3-f] [1,4]diazocine-2,11(3H)-dione]"
4,2.04e+06,"C=CC(=O)N1CCC(N2CCC(CN3C[C@H]4CC(=O)N(c5cc(C(F)(F)F)cc(C)n5)[C@@H]4C(=O)N(C)c4cccc(Cl)c43)CC2)C1 (stereo partly drawn) [Example 222, (3aR,11aS)-5-((1-(1-acryloylpyrrolidin-3-yl)piperidin-4-yl)methyl)-6-chloro-10-methyl-1-(6-methyl-4-(trifluoromethyl)pyridin-2-yl)-1,3a,4,5,10,11a-hexahydro-2H-benzo[b]pyrrolo [2,3-f][1,4] diazocine-2,11(3H)-dione]"
5,1.62e+06,"C=CC(=O)N1CC(N2CC[C@H](CN3C[C@H]4CC(=O)N(c5cc(C(F)(F)F)cc(C)n5)[C@@H]4C(=O)N(C)c4cccc(C)c43)C2)C1 [Example 223, (3aR,11aS)-5-(((S)-1-(1-acryloylazetidin-3-yl)pyrrolidin-3-yl)methyl)-6,10-dimethyl-1-(6-methyl-4-(trifluoromethyl)pyridin-2-yl)-1,3a,4,5,10,11a-hexahydro-2H-benzo[b]pyrrolo [2,3-f][1,4] diazocine-2,11(3H)-dione]"
6,4.21e+06,"C=CC(=O)N1CC(N2CC[C@@H](CN3C[C@H]4CC(=O)N(c5cc(C(F)(F)F)cc(C)n5)[C@@H]4C(=O)N(C)c4cccc(C)c43)C2)C1 [Example 224, (3aR,11aS)-5-(((R)-1-(1-acryloylazetidin-3-yl)pyrrolidin-3-yl)methyl)-6,10-dimethyl-1-(6-methyl-4-(trifluoromethyl)pyridin-2-yl)-1,3a,4,5,10,11a-hexahydro-2H-benzo[b]pyrrolo [2,3-f][1,4] diazocine-2,11(3H)-dione]"
7,2.26e+06,"C=CC(=O)N1Cc2ncc(CN3C[C@H]4CC(=O)N(c5cc(C(F)(F)F)cc(C)n5)[C@@H]4C(=O)N(C)c4cccc(C)c43)nc2C1 [Example 228, (3aR,11aS)-5-((6-acryloyl-6,7-dihydro-5H-pyrrolo[3,4-b]pyrazin-2-yl)methyl)-6,10-dimethyl-1-(6-methyl-4-(trifluoromethyl)pyridin-2-yl)-1,3a,4,5,10,11a-hexahydro-2H-benzo[b]pyrrolo[2,3-f][1,4]diazocine-2,11(3H)-dione]"

# The next lines start with the compound.
row,Compound,Kinact/Kl [M⁻¹ s⁻¹]
1,"C=C(CN(C)C)C(=O)Nc1ccc(CN2C[C@H]3CC(=O)N(c4cc(C(F)(F)F)cc(C)n4)[C@@H]3C(=O)N(C)c3cccc(C)c32)cc1OC [Example 210, N-(4-(((3aR,11aS)-6,10-dimethyl-1-(6-methyl-4-(trifluoromethyl)pyridin-2-yl)-2,11-dioxo-1,2,3,3a,4,10,11,11a-octahydro-5H-benzo[b]pyrrolo[2,3-f][1,4]diazocin-5-yl)methyl)-2-methoxyphenyl)-2-((dimethylamino)methyl)acrylamide]",630000
2,"Cc1cc(C(F)(F)F)cc(N2C(=O)C[C@@H]3CN(Cc4ccc(NC(=O)C5=CCCN(C)C5)cc4)c4c(C)cccc4N(C)C(=O)[C@H]32)n1 [Example 211, N-(4-(((3aR, 11aS)-6,10-dimethyl-1-(6-methyl-4-(trifluoromethyl)pyridin-2-yl)-2,11-dioxo-1,2,3,3a,4,10,11,11a-octahydro-5H-benzo[b]pyrrolo [2,3-f][1,4]diazocin-5-yl)methyl)phenyl)-1-methyl-1,2,5,6-tetrahydropyridine-3-carboxamide]",1.57e+06
3,"C=CC(=O)N1CC(N2CCC(CN3C[C@H]4CC(=O)N(c5cc(C(F)(F)F)cc(C)n5)[C@@H]4C(=O)N(C)c4cccc(F)c43)CC2)C1 [Example 212, (3aR,11aS)-5-((1-(1-acryloylazetidin-3-yl)piperidin-4-yl)methyl)-6-fluoro-10-methyl-1-(6-methyl-4-(trifluoromethyl)pyridin-2-yl)-1,3a,4,5,10,11a-hexahydro-2H-benzo[b]pyrrolo [2,3-f][1,4] diazocine-2,11 (3H)-dione]",1.81e+06
4,"C=CC(=O)N1CC(N2CC[C@H](CN3C[C@H]4CC(=O)N(c5cc(C(F)(F)F)cc(C)n5)[C@@H]4C(=O)N(C)c4cccc(F)c43)C2)C1 [Example 213, (3aR,11aS)-5-(((S)-1-(1-acryloylazetidin-3-yl)pyrrolidin-3-yl)methyl)-6-fluoro-10-methyl-1-(6-methyl-4-(trifluoromethyl)pyridin-2-yl)-1,3a,4,5,10,11a-hexahydro-2H-benzo[b]pyrrolo [2,3-f][1,4] diazocine-2,11(3H)-dione]",1.08e+06
5,"C=CC(=O)N1CC(N2CC[C@@H](CN3C[C@H]4CC(=O)N(c5cc(C(F)(F)F)cc(C)n5)[C@@H]4C(=O)N(C)c4cccc(F)c43)C2)C1 [Example 214, (3aR,11aS)-5-(((R)-1-(1-acryloylazetidin-3-yl)pyrrolidin-3-yl)methyl)-6-fluoro-10-methyl-1-(6-methyl-4-(trifluoromethyl)pyridin-2-yl)-1,3a,4,5,10,11a-hexahydro-2H-benzo[b]pyrrolo [2,3-f][1,4] diazocine-2,11 (3H)-dione]",320000
6,"C=CC(=O)N1CC(N2CCC(CCN3C[C@H]4CC(=O)N(c5cc(C(F)(F)F)cc(C)n5)[C@@H]4C(=O)N(C)c4cccc(F)c43)CC2)C1 [Example 215, (3aR,11aS)-5-(2-(1-(1-acryloylazetidin-3-yl)piperidin-4-yl)ethyl)-6-fluoro-10-methyl-1-(6-methyl-4-(trifluoromethyl)pyridin-2-yl)-1,3a,4,5,10,11a-hexahydro-2H-benzo[b]pyrrolo [2,3-f][1,4] diazocine-2,11 (3H)-dione]",1.21e+06
7,"C=CC(=O)N1CC(N2CCC(N3C[C@H]4CC(=O)N(c5cc(C(F)(F)F)cc(C)n5)[C@@H]4C(=O)N(C)c4cccc(F)c43)CC2)C1 [Example 216, (3aR,11aS)-5-(1-(1-acryloylazetidin-3-yl)piperidin-4-yl)-6-fluoro-10-methyl-1-(6-methyl-4-(trifluoromethyl)pyridin-2-yl)-1,3a,4,5,10,11a-hexahydro-2H-benzo[b]pyrrolo [2,3-f][1,4] diazocine-2,11(3H)-dione]",430000
8,"C=CC(=O)N1CC(N2CCC(F)(CN3C[C@H]4CC(=O)N(c5cc(C(F)(F)F)cc(C)n5)[C@@H]4C(=O)N(C)c4cccc(Cl)c43)CC2)C1 [Example 217, (3aR,11aS)-5-((1-(1-acryloylazetidin-3-yl)-4-fluoropiperidin-4-yl)methyl)-6-chloro-10-methyl-1-(6-methyl-4-(trifluoromethyl)pyridin-2-yl)-1,3a,4,5,10,11a-hexahydro-2H-benzo[b] pyrrolo[2,3-f] [1,4]diazocine-2,11(3H)-dione]",1.59e+06
9,"C=CC(=O)N1CC(N2CC[C@H](CN3C[C@H]4CC(=O)N(c5cc(C(F)(F)F)cc(C)n5)[C@@H]4C(=O)N(C)c4cccc(Cl)c43)C2)C1 [Example 218, (3aR,11aS)-5-(((S)-1-(1-acryloylazetidin-3-yl)pyrrolidin-3-yl)methyl)-6-chloro-10-methyl-1-(6-methyl-4-(trifluoromethyl)pyridin-2-yl)-1,3a,4,5,10,11a-hexahydro-2H-benzo[b]pyrrolo [2,3-f][1,4] diazocine-2,11 (3H)-dione]",1.62e+06
